Measurements published in patent publication US20260076346A1, “IMMUNODEFICIENT NON-HUMAN ANIMALS FOR ASSESSING DRUG METABOLISM AND TOXICITY” (UNIVERSITY OF DUNDEE, priority 2022, published 2026).
Entries after “also recorded” stand apart in the source; their conditions may differ.

Key:
[1] = test system: 5555 murine melanoma cells; assay: Syngeneic graft of 5555 murine melanoma cells in 8HUM mice, tumour volume under daily oral treatment; assay type: in vivo, mouse; settings: adult female 8HUM mice, n=5, 31.5 mg/kg daily p.o. from day 5 after implantation, study ended day 15, versus vehicle
Procedure: FIG. 1: A. Xenograft of BRAFV600E human melanoma A375 cells in Rag2^null/8HUM mice (top). Bottom-no growth of A375 cells in immunocompetent 8HUM mice. B. Growth of a murine melanoma syngeneic graft in 8HUM mice and response to dabrafenib treatment. Adult female 8HUM_Rag2−/− mice (18-21w, n=5) were injected subcutaneously (s.c.) in one flank with 3.5×10^6 5555 murine melanoma cells, in 100 μl ECM diluted 1:1 with DMEM. […] Tumour measurements were taken three times weekly, then daily as required, and tumour volume calculated as detailed in Methods section. […]
Data analysis: Dependencies of calculated tumour volumes versus time were analysed by non-linear regression using exponential growth and exponential decay functions (Prism 5 software, Graphpad, US). […]
A375 human melanoma cells (ATCC: CRL-1619; RRID: CVCL_UD29) and 5555 murine melanoma cells (19-21) were grown as directed, with the latter subject to commercial murine pathogen testing (IDEXX Bioanalytics GmbH, Germany) and both to in-house mycoplasma testing (MycoAlert Mycoplasma Detection kit, Lonza Rockland, USA) before use. Passage number was recorded for each study. […]
Once established, tumours were measured twice in two dimensions (maximum breadth and length) using digital callipers, by the same person to avoid interindividual variation. […]

[2] = test system: BRAFV600E human melanoma A375 cells; assay: A375 human melanoma xenograft in 8HUM_Rag2-/- mice, tumour volume under daily oral treatment; assay type: in vivo; settings: adult female 8HUM_Rag2-/- mice
Procedure: Adult female 8HUM mice (11-19w, n=3) were injected s.c. in both flanks with 4.4×10^6 A375 melanoma cells, in 100 μl DMEM. Tumours were allowed to establish and on day 28 after implantation daily treatment was commenced with either vehicle (0.5% (w/v) hydroxypropylmethylcellulose, 0.2% (v/v) Tween-80; closed circles) or dabrafenib (in vehicle, open circles) suspended at 6.3 mg/ml and administered at 5 ml/kg, such that dabrafenib dose administered was 31.5 mg/kg (arrow). Tumour measurements were taken three times weekly, then daily as required, and total volume of tumours on both flanks was calculated as detailed in Methods section.
Adult female (>8<22 weeks) mice were randomly allocated into control or experimental groups and allowed to adapt to their social setting for 7d before study start. Cages were adjacent to each other on the same level of a ventilated rack, in the same room, for the study duration.
Data analysis: Dependencies of calculated tumour volumes versus time were analysed by non-linear regression using exponential growth and exponential decay functions (Prism 5 software, Graphpad, US). Rate constants in both functions were constrained to positive values to maintain consistency with the function name. Values for plateau parameters in exponential decay function were set to zero.

[3] = test system: 5555 murine melanoma cell line; settings: reported by Hirata et al.; cited from earlier work
[4] = test system: 5555 murine melanoma cell line; settings: reported by Hirata et al.; cited from earlier work; remark: listed apart in the source

## CC(C)(C)c1nc(-c2cccc(NS(=O)(=O)c3c(F)cccc3F)c2F)c(-c2ccnc(N)n2)s1 [dabrafenib]
[1]
  tumour growth / mean tumour volume of 5555 (GM5555) murine melanoma syngeneic graft: became almost undetectable; also recorded: exquisitely sensitive
[1]; listed as Dabrafenib
  tumour growth / mean tumour volume of 5555 (GM5555) murine melanoma syngeneic graft: successfully inhibited
[2]; A375 xenograft, 31.5 mg/kg daily p.o. d28-d35, vehicle group followed exponential growth
  fit of tumour volume versus time by non-linear regression (exponential growth or decay): follows exponential decay dependency
[2]; n=3, 31.5 mg/kg daily p.o. from d28 to d35, versus vehicle
  total mean tumour volume of A375 xenograft (both flanks): shrank in size

## CCCS(=O)(=O)Nc1ccc(F)c(C(=O)c2c[nH]c3ncc(Cl)cc23)c1F [PLX4720]
[3]
  sensitivity of 5555 cell line in vivo: refractory
[4]
  sensitivity of 5555 cell line in vitro: sensitive
